Measurements reported in patent US9592243B2, “Medical devices and methods comprising an anabolic agent for treatment of an injury” (Warsaw Orthopedic, Inc., priority 2011, dated 2017).

Tested on: surgical injury (linear full-thickness incisions)
Test: Injury strength of full-thickness surgical incisions, vacuum failure pressure (BTC-2000)
Format: in vivo, male hairless guinea pigs
Text: In a recent proof-of-concept study, male hairless guinea pigs (n=30) receive bilateral incisions as previously described by Storch, Perry, Davidson, and Ward (Surg Infect (Larchmt) 2002; 3 Suppl 1:S89-98) This reference is herein incorporated by reference. Two linear full-thickness incisions exactly 2 cm long and separated by approximately 3 cm were made on the left and right dorsolateral regions of all animals. Incisions extend through the dermis and subcutaneous tissue and panniculus carnosus muscle. After the injuries were created, 200 μL of a […] aqueous suspension (1 mg of drug, ˜2.7 mg/kg) of generic stanozolol was applied directly into the injury bed in the right flank but not left flank of n=16 animals. The injury bed on the left side of these animals received 200 μL of saline vehicle control. In the remaining fourteen animals, incisions were not treated (nothing applied control). Only the incision in the right flank was assessed for injury strength in the nothing applied control animals. All injuries were then closed with interrupted nylon sutures. On days 2, 4, and 6 (in remaining animals), animals in the stanozolol group received 100 μL (0.5 mg, ˜1.4 mg/kg) of the same stanozolol suspension in the right injury and 100 μL of saline in the left injury, carefully injected with an insulin syringe introduced lateral to the injury and directed towards the injury bed. For each time point (days 5 and 7), injury strength was tested in 7 nothing applied control guinea pigs and 8 stanozolol guinea pigs after carefully removing dressing and sutures. Injury strength was measured by applying a vacuum to the injury and recording the pressure at which the injury fails. Biomechanical testing was performed under anesthesia using the […] (SRI Technologies, Nashville). A disposable acrylic test ring was placed around the injury and secured to the skin using acrylate glue. The BTC-2000™ test chamber (2.5 cm ID) was mated to the test ring. An escalating negative pressure was applied to the injury at a rate of 10 mm Hg/second, producing a multi-axial stress on the injury. […]

Compound: C[C@]12Cc3c[nH]nc3C[C@@H]1CC[C@@H]1[C@@H]2CC[C@@]2(C)[C@H]1CC[C@]2(C)O [stanozolol]
- Effect on contralateral (saline treated, left flank) injuries in stanozolol treated animals (local stanozolol in right injury only, days 5 and 7): No effect
- Injury strength when exposed to pressure, compared to injuries with control or placebo (FIG. 1) (locally injected bolus dose of 1 mg initially, then 0.5 mg on days 2, 4, 6, tested on days 5 and seven): highest injury strength
- Injury strength (pressure at which the injury fails) compared to nothing applied control injuries (stanozolol aqueous suspension applied locally into right flank injury, 1 mg initially then 0.5 mg on days 2, 4, 6, tested on days 5 and 7): significantly stronger
